What was measured:
physchem = settings: water, approximately 1 g equilibrated in 8.5 mL of water at 20° C. for 2 days, centrifuged, uPLC
Protocol: Approximately 1 g of substance was equilibrated in 8.5 mL of water at 20° C. for 2 days. 1 mL of suspension was centrifuged. The filtrate was analyzed by uPLC.

CN1C(=O)[C@H](CCCCN)NC(=O)[C@H](CCCN)NCc2cccnc2Sc2cccc(-c3ccc(C(=O)O)cc3)c2CNC(=O)[C@@H]1Cc1c[nH]c2ccccc12 [free base, 4-[(11S,14S,17S)-14-(4-Aminobutyl)-11-(3-aminopropyl)-17-(1H-indol-3-ylmethyl)-16-methyl-12,15,18-trioxo-2-thia-4,10,13,16,19-pentazatricyclo[19.4.0.03,8]pentacosa-1(25),3(8),4,6,21,23-hexaen-22-yl]benzoic acid]
Solubility in water (in words) (water): hardly soluble in water

CN1C(=O)[C@H](CCCCN)NC(=O)[C@H](CCCN)NCc2cccnc2Sc2cccc(-c3ccc(C(=O)O)cc3)c2CNC(=O)[C@@H]1Cc1c[nH]c2ccccc12 [Form A family free zwitterion]
solubility at 2 days (physchem): < 1 mg/mL

CN1C(=O)[C@H](CCCCN)NC(=O)[C@H](CCCN)NCc2cccnc2Sc2cccc(-c3ccc(C(=O)O)cc3)c2CNC(=O)[C@@H]1Cc1c[nH]c2ccccc12.Cl [Amorphous HCl salt, 4-[(11S,14S,17S)-14-(4-Aminobutyl)-11-(3-aminopropyl)-17-(1H-indol-3-ylmethyl)-16-methyl-12,15,18-trioxo-2-thia-4,10,13,16,19-pentazatricyclo[19.4.0.03,8]pentacosa-1(25),3(8),4,6,21,23-hexaen-22-yl]benzoic acid, mono hydrochloric acid salt]
Solubility (approximately 1 g equilibrated in 8.5 mL of water at 20° C. for 2 days, centrifuged, uPLC): 177.6 mg/mL

CN1C(=O)[C@H](CCCCN)NC(=O)[C@H](CCCN)NCc2cccnc2Sc2cccc(-c3ccc(C(=O)O)cc3)c2CNC(=O)[C@@H]1Cc1c[nH]c2ccccc12.Cl [HCl salt, 4-[(11S,14S,17S)-14-(4-Aminobutyl)-11-(3-aminopropyl)-17-(1H-indol-3-ylmethyl)-16-methyl-12,15,18-trioxo-2-thia-4,10,13,16,19-pentazatricyclo[19.4.0.03,8]pentacosa-1(25),3(8),4,6,21,23-hexaen-22-yl]benzoic acid]
Solubility compared to the free base (in words) (especially in aqueous media): dramatically increased solubility compared to the free base

CN1C(=O)[C@H](CCCCN)NC(=O)[C@H](CCCN)NCc2cccnc2Sc2cccc(-c3ccc(C(=O)O)cc3)c2CNC(=O)[C@@H]1Cc1c[nH]c2ccccc12.Cl [Form A family HCl salt]
solubility at 2 days (physchem): 124 mg/mL

Source: patent US20260250316A1, “CRYSTALLINE FORMS OF A MACROCYCLIC PEPTIDE ANTIBIOTIC” (Hoffmann-La Roche Inc., priority 2022, published 2026)
